This note sets out measurements from article PMC11125039, “An Effective Modification Strategy to Build Multifunctional Peptides Based on a Trypsin Inhibitory Peptide of the Kunitz Family” (Pharmaceutics, 2024).

Read-outs that look alike come from different tables or passages of the source. Bridge positions count the residues as written; N and C are the ends. Peptide text beside a SMILES is read from it.

The subject of one assay is U251MG. The experiment in a line: Antiproliferation assay (MTT). In kind it is cell-based, human. The note with it: 24 h.
Assay [1] relates to E. coli (BAA 2340). The experiment in a line: Time-killing kinetic assay. It counts as cell-based, Escherichia coli. How it is done: (§1) The time-killing kinetic assay was executed to explore the killing efficiency of the peptides against bacteria. […] The bacteria were cultured using the same method as that employed in the antimicrobial activity determination assay. […] All colonies were counted and recorded after the seeded plates had been incubated at 37 °C for 24 h.

The test system of assay [2] is E. coli (NCTC 13846). As to the kind of experiment: Time-killing kinetic assay. It counts as cell-based, Escherichia coli. The settings on record: for killing kinetics (in words): MIC, 2 × MIC and 4 × MIC. The method, then: as §1
The test system of another assay is H838. The experiment in a line: Antiproliferation assay (MTT). It counts as cell-based, human. The settings on record: H838, 24 h.
The subject of another assay is HCT116. The experiment in a line: Antiproliferation assay (MTT). The note with it: HCT116, 24 h. It counts as cell-based, human.
For assay [3], the system named is E. coli (BAA 2340)-infected waxworms. In kind it is in vivo, Galleria mellonella. The method, then: The larvae of Galleria mellonella were used to evaluate the in vivo antibacterial activity of the peptides. In this assay, the larvae (250 ± 25 mg) (Livefood UK Ltd., Rooks Bridge, UK) of the infected group were infected with 10 μL of a bacterial suspension (1 × 10^7 CFU/mL). After one hour, 10 μL of a peptide solution was injected into each infected larva. As a positive control, infected larvae received 20 mg/kg of rifampicin. The vehicle control consisted of uninfected larvae administered 10 μL of PBS. All larvae were then monitored every 24 h for a duration of five days.

The test system of the next assay is MCF-7. The note with it: MCF-7, 24 h, MTT.
For the next assay, the system named is HaCaT. As to the kind of experiment: Antiproliferation assay (MTT), normal cell cytotoxicity. It counts as cell-based, human. The note with it: HaCaT (normal cell line), 24 h.
The subject of assay [4] is E. coli (BAA 2340). The experiment in a line: SYTOX Green permeability assay. It counts as cell-based, Escherichia coli. The settings on record: at the MIC. How it is done:
(§2) The SYTOX^TM Green Nucleic Acid Stain (ThermoFisher Scientific, Waltham, MA, USA) assay was used to investigate the antibacterial mechanism of the peptides as they cannot cross intact membranes, but can easily penetrate the damaged membranes characteristic of dead cells.
(§3) After being sub-cultured for 2 h, the bacteria were centrifuged at 1000× g for 10 min at 4 °C; then, the culture medium was discarded. […] After a third wash, the bacteria were diluted with the same solution until they reached the logarithmic growth phase in which the OD value just reached 0.70 at a wavelength of 590 nm. […] Finally, 10 μL of SYTOX^TM green nucleic acid stain (5 μM) was added to the plate and the mixture was incubated at 37 °C under dark conditions for another 5 min. […] Bacterial medium with 5% TSB acted as the negative control; bacterial medium treated with a melittin peptide solution (8 μM) was set as the positive control; 5% TSB alone was the blank control.

Assay [5] has as its system E. coli (NCTC 13846). As to the kind of experiment: SYTOX Green permeability assay. In kind it is cell-based, Escherichia coli. The note with it: at the MIC. The method, then:
as §2, §3

For another assay, the system named is E. coli (ATCC CRM 8739). The experiment in a line: SYTOX Green permeability assay. The note with it: at the MIC. It counts as cell-based, Escherichia coli. How it is done:
as §2, §3

The mark [6] stands for this setting: 4 × MIC of peptide, after 120 h of infection.

Procedure for H838: (§4) The tested human cell lines in this assay included cancerous and non-cancerous cell lines: a human breast cancer cell line (MCF-7), a human lung carcinoma cell line (H838), a human colorectal carcinoma cell line (HCT116), and a human glioblastoma astrocytoma cell line (U251MG); these cell lines were incubated with the peptides at concentrations between 10^−4 to 10^−9 M to study their antiproliferation ability against cancer cells. Also, for the safety evaluation, a human skin keratinocyte cell line (HaCaT) was selected to investigate the cytotoxicity of peptides against normal human cells.
(§5) At first, after the stock cells were revived, they were transferred into a 75 mL flask with 10 mL of the corresponding culture medium and cultured for 3–5 days at 37 °C until most cells had attached to the flask wall. Then, the culture medium was removed, and 10 mL of PBS was used to wash the wall twice and discarded. Subsequently, 3–4 mL of a trypsin solution was added for 2–3 min to detach the cells from the container wall and then 8–10 mL of FBS was added to stop the digestion reaction. The cell suspension was transferred into a 15 mL tube and centrifuged. The supernatant was removed and 4 mL of complete growth medium was added to this tube to prepare a stock cell suspension. […] After 10 min of shaking, the cell viability in each well was read at a wavelength of 570 nm.
Procedure for HCT116: as §4
At first, after the stock cells were revived, they were transferred into a 75 mL flask with 10 mL of the corresponding culture medium and cultured for 3–5 days at 37 °C until most cells had attached to the flask wall. Then, the culture medium was removed, and 10 mL of PBS was used to wash the wall twice and discarded. Subsequently, 3–4 mL of a trypsin solution was added for 2–3 min to detach the cells from the container wall and then 8–10 mL of FBS was added to stop the digestion reaction. The cell suspension was transferred into a 15 mL tube and centrifuged. The supernatant was removed and 4 mL of complete growth medium was added to this tube to prepare a stock cell suspension. Approximately 10 µL of a mixture containing an equal volume of trypan blue and cell medium was dropped into a chamber to measure the density of cells under the microscope. Based on the cell density, the cell suspension was diluted with foetal bovine serum (FBS) (Sigma-Aldrich, St. Louis, MO, USA) to the standard cell density (H838, MCF-7: 8 × 10^4; U251MG: 5 × 10^4; HCT116: 2 × 10^5; HaCaT: 2 ×10^5 cells/mL). Then, it was seeded into a 96-well plate at 100 μL/well. After 20–24 h incubation, 100 μL of serum-free medium was used to replace the previous FBS medium and the plate was incubated another 4 h for cell starvation. At the same time, the peptide was dissolved in DMSO at a concentration of 10^−2 M and then mixed with the serum-free medium at working concentrations ranging from 10^−7 to 10^−4 M. Finally, the medium in the 96-well plate was replaced with the peptide solutions. The experimental group used 100 μL of the working concentration peptide solution. The vehicle group consisted of 1 µL of DMSO and 99 µL of serum-free medium. The blank and growth groups both comprised 100 µL of serum-free medium. The loaded 96-well plate was incubated for another 24 h for the treatment. The next day, 10 µL of MTT was added to each well and incubated for 2 h, after which, all media in each well were discarded and substituted with 100 μL of DMSO. After 10 min of shaking, the cell viability in each well was read at a wavelength of 570 nm.
Procedure for HaCaT: as §4
(§6) At first, after the stock cells were revived, they were transferred into a 75 mL flask with 10 mL of the corresponding culture medium and cultured for 3–5 days at 37 °C until most cells had attached to the flask wall. Then, the culture medium was removed, and 10 mL of PBS was used to wash the wall twice and discarded. Subsequently, 3–4 mL of a trypsin solution was added for 2–3 min to detach the cells from the container wall and then 8–10 mL of FBS was added to stop the digestion reaction. The cell suspension was transferred into a 15 mL tube and centrifuged. The supernatant was removed and 4 mL of complete growth medium was added to this tube to prepare a stock cell suspension. Approximately 10 µL of a mixture containing an equal volume of trypan blue and cell medium was dropped into a chamber to measure the density of cells under the microscope. Based on the cell density, the cell suspension was diluted with foetal bovine serum (FBS) (Sigma-Aldrich, St. Louis, MO, USA) to the standard cell density (H838, MCF-7: 8 × 10^4; U251MG: 5 × 10^4; HCT116: 2 × 10^5; HaCaT: 2 ×10^5 cells/mL). Then, it was seeded into a 96-well plate at 100 μL/well. After 20–24 h incubation, 100 μL of serum-free medium was used to replace the previous FBS medium and the plate was incubated another 4 h for cell starvation. […] After 10 min of shaking, the cell viability in each well was read at a wavelength of 570 nm.
Procedure for MCF-7: as §4, §5
Procedure for U251MG: as §4, §6

In the case of `CC[C@H](C)[C@H](N)C(=O)N[C@@H](CCCCN)C(=O)N[C@@H](Cc1ccccc1)C(=O)N[C@@H](CCCCN)C(=O)N[C@H](C(=O)N[C@@H](Cc1c[nH]cn1)C(=O)N[C@@H](Cc1ccccc1)C(=O)N[C@@H](CCCNC(=N)N)C(=O)N[C@H]1CSSC[C@@H](C(=O)O)NC(=O)[C@H](Cc2ccccc2)NC(=O)[C@H](C)NC(=O)[C@H](C)NC(=O)[C@H](CCCCN)NC1=O)C(C)C` [OSTI−1696] (H-IKFKVHFRCKAAFC-OH; disulfide 9-14; N-terminus and C-terminus assumed), the IC50 result with U251MG, with H838 and in the assay with HCT116 was “N.I” in each case. For the same molecule, the results for the “time to kill bacteria” value in the assay with E. coli (BAA 2340) [1] (at 2 × MIC), in the assay with E. coli (BAA 2340) [1] (at 4 × MIC) and with E. coli (BAA 2340) [1] (at the MIC) were not above 5 min, not above 5 min and not above 10 min, respectively. Besides, the “killing kinetics (in words)” value in the assay with E. coli (NCTC 13846) [2] is recorded as “almost instant bactericidal activity”. In [3] (setting [6]), the “mortality of infected larvae” value stood at 20%.

As to `CC[C@H](C)[C@H](NC(=O)[C@@H](N)C(C)C)C(=O)N[C@@H](Cc1ccccc1)C(=O)N[C@@H](CCCCN)C(=O)N[C@H](C(=O)N[C@@H](Cc1ccccc1)C(=O)N[C@@H](Cc1c[nH]c2ccccc12)C(=O)N[C@@H](CCCNC(=N)N)C(=O)N[C@H]1CSSC[C@@H](C(=O)O)NC(=O)[C@H](Cc2ccccc2)NC(=O)[C@H](C)NC(=O)[C@H](C)NC(=O)[C@H](CCCCN)NC1=O)C(C)C` [OSTI−1716] (H-VIFKVFWRCKAAFC-OH; disulfide 9-14; N-terminus and C-terminus assumed), in the assay on HCT116, the IC50 entry is on record as “N.I”.

On to `CC[C@H](C)[C@H](NC(=O)[C@H](CC(N)=O)NC(=O)[C@@H](NC(=O)[C@H](C)N)C(C)C)C(=O)N1CCC[C@H]1C(=O)N[C@@H](Cc1ccccc1)C(=O)N[C@@H](CCCCN)C(=O)N[C@H](C(=O)N[C@@H](Cc1c[nH]cn1)C(=O)N[C@@H](Cc1ccccc1)C(=O)N[C@@H](CCCNC(=N)N)C(=O)N[C@H]1CSSC[C@@H](C(=O)O)NC(=O)[C@H](Cc2ccccc2)NC(=O)[C@H](C)NC(=O)[C@H](C)NC(=O)[C@H](CCCCN)NC1=O)C(C)C` [OSTI−1949] (H-AVNIPFKVHFRCKAAFC-OH; disulfide 12-17; N-terminus and C-terminus assumed), for which the IC50 result in the assay with U251MG, in the assay on MCF-7, with H838, in the assay on HaCaT and in the assay with HCT116 was “N.I” in each case. For the same molecule, the “uptake of SYTOX Green” value in the assay on E. coli (BAA 2340) [4], with E. coli (NCTC 13846) [5] and in the assay on E. coli (ATCC CRM 8739) was “approximately 50%” throughout.

As for `CC(C)[C@H](NC(=O)[C@H](C)N)C(=O)N[C@@H](CCCCN)C(=O)N[C@@H](CCCNC(=N)N)C(=O)N[C@@H](C)C(=O)N[C@H](C(=O)N[C@@H](CCCCN)C(=O)N[C@@H](CCCNC(=N)N)C(=O)N[C@@H](Cc1ccccc1)C(=O)N[C@@H](CCCCN)C(=O)N[C@H](C(=O)N[C@@H](Cc1c[nH]cn1)C(=O)N[C@@H](Cc1ccccc1)C(=O)N[C@@H](CCCNC(=N)N)C(=O)N[C@H]1CSSC[C@@H](C(=O)O)NC(=O)[C@H](Cc2ccccc2)NC(=O)[C@H](C)NC(=O)[C@H](C)NC(=O)[C@H](CCCCN)NC1=O)C(C)C)C(C)C` [OSTI−2363] (H-AVKRAVKRFKVHFRCKAAFC-OH; disulfide 15-20; N-terminus and C-terminus assumed), the IC50 entry with U251MG, in the assay with MCF-7, in the assay on HaCaT and in the assay on HCT116 was “N.I” each time. The “killing kinetics (in words)” value is “almost instant bactericidal activity” in the assay on E. coli (BAA 2340) [1] (MIC, 2 × MIC and 4 × MIC); “almost instant bactericidal activity” in the assay with E. coli (NCTC 13846) [2]. The “time to kill bacteria” value with E. coli (BAA 2340) [1] (at the MIC) and with E. coli (NCTC 13846) [2] (lowest tested concentration (MIC)) was not above 5 min each time. For the same molecule, the “mortality of infected larvae” value in [3] (setting [6]) is given as 40%.

Consider `CC[C@H](C)[C@H](NC(=O)[C@H](CC(N)=O)NC(=O)[C@@H](NC(=O)[C@H](C)N)C(C)C)C(=O)N1CCC[C@H]1C(=O)N[C@@H](Cc1ccccc1)C(=O)N[C@@H](CCCCN)C(=O)N[C@H](C(=O)N[C@@H](Cc1c[nH]cn1)C(=O)N[C@@H](Cc1ccccc1)C(=O)N[C@@H](CCCCN)C(=O)N[C@H](C(=O)N[C@@H](Cc1c[nH]cn1)C(=O)N[C@@H](Cc1ccccc1)C(=O)N[C@@H](CCCNC(=N)N)C(=O)N[C@H]1CSSC[C@@H](C(=O)O)NC(=O)[C@H](Cc2ccccc2)NC(=O)[C@H](C)NC(=O)[C@H](C)NC(=O)[C@H](CCCCN)NC1=O)C(C)C)C(C)C` [OSTI−2461] (H-AVNIPFKVHFKVHFRCKAAFC-OH; disulfide 16-21; N-terminus and C-terminus assumed), for which the IC50 entry in the assay on HaCaT and in the assay on HCT116 was “N.I” in each case.

`CO[C@H]1/C=C/O[C@@]2(C)Oc3c(C)c(O)c4c(O)c(c(/C=N/N5CCN(C)CC5)c(O)c4c3C2=O)NC(=O)/C(C)=C\C=C\[C@H](C)[C@H](O)[C@@H](C)[C@@H](O)[C@@H](C)[C@H](OC(C)=O)[C@@H]1C` [rifampicin, reference compound]: the “mortality of infected larvae” value in assay [3] (20 mg/kg, 5 days, positive control) stood at 20%.
